Test results: US4227003A, “Bromo-A-23187 derivatives” (Eli Lilly and Company, priority 1978, dated 1980)

How the values were obtained:
[1] = molecular target: cation transport ATPase in liver mitochondria; assay: In vitro inhibition of cation transport ATPase in liver mitochondria; type: biochemical
Description: In yet another aspect, the compounds of this invention are active as inhibitors of the enzyme ATPase. ATPase, an alkali-metal-sensitive enzyme found in cell membranes, is involved in the energy necessary for active transport. "Active transport" refers to the energy-requiring series of operations whereby intracellular and extracellular fluids maintain their compositions. Inhibitors of ATPase reduce the energy required for active transport. Table III summarizes the results of in vitro tests measuring inhibition of cation transport ATPase in liver mitochondria [measured as half effective concentration (Ic50) in mcg/ml].

[2] = tested on: Staphylococcus aureus (H-Heatley strain, NRRL B-314); assay: Bioassay for antibacterial activity; type: cell-based
Description: The compounds of this invention are useful antibacterial agents. In this aspect, these compounds may be used in the same manner in which the parent antibiotic is used, as described in U.S. Pat. No. 3,923,823. A bioassay for the antibacterial activity of A-23187 has been described by J. E. Westhead in Antimicrobial Agents and Chemotherapy 11 (5), 916-918 (1977). The test organism for this bioassay is Staphylococcus aureus (H-Heatley strain, NRRL B-314).

[3] = Acute toxicity in mice, intraperitoneal; details: mouse, in vivo, ip
Method: The compounds of the present invention are, in general, less toxic than the parent antibiotic. Table II summarizes the acute toxicities of representative compounds in mice, expressed as LD50, when the compounds are administered intraperitoneally.

[4] = cited from earlier work
[5] = Pfeiffer and Lardy, Biochemistry 15, 935 (1976)

CNc1ccc2oc(CC3OC4(CCC3C)OC(C(C)C(=O)c3cc(Br)c(Br)[nH]3)C(C)CC4C)nc2c1C(=O)O (stereo not drawn) [23,24-dibromo-A-23187 (free acid), 5-(methylamino)-2-[[3β,9α,11β-trimethyl-8-[1α-methyl-2-oxo-2-(4,5-dibromo-1H-pyrrol-2-yl)ethyl]-1,7-dioxaspiro[5.5]undec-2β-yl]methyl]-4-benzoxazolecarboxylic acid]
half effective concentration (Ic50), ATPase induced by CaCl2 [1]: 0.8 µg/mL
half effective concentration (Ic50), ATPase induced by K^+ monazomycin [1]: 0.1 µg/mL
Bioassay [2]: 1105 µg/mL
LD50 [3]: 79.8 mg/kg

CNc1ccc2oc(CC3OC4(CCC3C)OC(C(C)C(=O)c3cc(Br)c[nH]3)C(C)CC4C)nc2c1C(=O)O (stereo not drawn) [23-bromo-A-23187 (free acid), 5-(methylamino)-2-[[3β,9α,11β-trimethyl-8-[1α-methyl-2-oxo-2-(4-bromo-1H-pyrrol-2-yl)ethyl]-1,7-dioxaspiro[5.5]undec-2β-yl]methyl]-4-benzoxazolecarboxylic acid]
half effective concentration (Ic50), ATPase induced by CaCl2 [1]: > 10 µg/mL
half effective concentration (Ic50), ATPase induced by K^+ monazomycin [1]: 0.1 µg/mL
Bioassay [2]: 1766 µg/mL
LD50 [3]: 23.7 mg/kg

CNc1ccc2oc(CC3OC4(CCC3C)OC(C(C)C(=O)c3ccc[nH]3)C(C)CC4C)nc2c1C(=O)O (centres unmarked) [A-23187 (free acid), reference compound]
half effective concentration (Ic50), ATPase induced by CaCl2 [1]: 0.5 µg/mL
half effective concentration (Ic50), ATPase induced by K^+ monazomycin [1]: 0.5 µg/mL
Bioassay [2]: 1060 µg/mL
discrimination for divalent over monovalent cations [4, 5]: not complete
transport of Mg^2+ versus Ca^2+ [4, 5]: transports Mg^2+ with a similar efficiency to Ca^2+
selectivity for transport of divalent over monovalent cations ([4]; background, among approximately 100 known ionophores): substantially selective for the transport of divalent over monovalent cations
